Experimental data reported in PubChem BioAssay AID1963443 (Molecular Pharmacology Branch, DTP, NCI, 2024).

Tested on: MDA-MB-231 complex spheroids, growth inhibition
Experiment: Anticancer human tumor MDA-MB-231 cell line growth inhibition [Asc];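 note: spheroids exposed to compounds for 7 days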
Conditions: for IC50: curve of first compound; for viability, T/C: stronger effect = lower value
How it was run: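 Tumor cells were grown as multicellular spheroids with stromal HUVEC and mesenchymal stem cells and treated singly or in combination. Concentrations fell in half-log steps from the clinical Cmax, or from 10 microM where none was known.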

## Cc1nc(N2CCC3(CC2)COC(C)C3N)c(CO)nc1Sc1ccnc(N)c1Cl (configuration not stated) + CNC(C)C(=O)NC1CN(S(=O)(=O)c2cccc(S(=O)(=O)N3CCC4CCC(C(=O)NC(c5ccccc5)c5ccccc5)N4C(=O)C(NC(=O)C(C)NC)C3)c2)CCC2CCC(C(=O)NC(c3ccccc3)c3ccccc3)N2C1=O
Second compound 0.00316 µM
  IC50: < 9.49 nM
Second compound 0.01 µM
  IC50: < 9.49 nM
Second compound 0.0316 µM
  IC50: < 9.49 nM
Second compound 0.1 µM
  IC50: < 9.49 nM
Second compound 0.316 µM
  IC50: 496 nM
Second compound 1 µM
  IC50: 487 nM
Second compound 0.00316 µM, first compound 0.00949 µM
  viability, T/C: 6.2%
Second compound 0.00316 µM, first compound 0.03 µM
  viability, T/C: 3.59%
Second compound 0.00316 µM, first compound 0.0949 µM
  viability, T/C: 3.91%
Second compound 0.00316 µM, first compound 0.3 µM
  viability, T/C: 2.35%
Second compound 0.00316 µM, first compound 0.949 µM
  viability, T/C: 1.9%
Second compound 0.00316 µM, first compound 3 µM
  viability, T/C: 0.75%
Second compound 0.01 µM, first compound 0.00949 µM
  viability, T/C: 3.06%
Second compound 0.01 µM, first compound 0.03 µM
  viability, T/C: 1.64%
Second compound 0.01 µM, first compound 0.0949 µM
  viability, T/C: 2.31%
Second compound 0.01 µM, first compound 0.3 µM
  viability, T/C: 2.09%
Second compound 0.01 µM, first compound 0.949 µM
  viability, T/C: 1.16%
Second compound 0.01 µM, first compound 3 µM
  viability, T/C: 1.06%
Second compound 0.0316 µM, first compound 0.00949 µM
  viability, T/C: 1.57%
Second compound 0.0316 µM, first compound 0.03 µM
  viability, T/C: 2.27%
Second compound 0.0316 µM, first compound 0.0949 µM
  viability, T/C: 1.35%
Second compound 0.0316 µM, first compound 0.3 µM
  viability, T/C: 1%
Second compound 0.0316 µM, first compound 0.949 µM
  viability, T/C: 2.18%
Second compound 0.0316 µM, first compound 3 µM
  viability, T/C: 1.27%
Second compound 0.1 µM, first compound 0.00949 µM
  viability, T/C: 1.75%
Second compound 0.1 µM, first compound 0.03 µM
  viability, T/C: 1.36%
Second compound 0.1 µM, first compound 0.0949 µM
  viability, T/C: 0.97%
Second compound 0.1 µM, first compound 0.3 µM
  viability, T/C: 0.62%
Second compound 0.1 µM, first compound 0.949 µM
  viability, T/C: 1.23%
Second compound 0.1 µM, first compound 3 µM
  viability, T/C: 1.82%
Second compound 0.316 µM, first compound 0.00949 µM
  viability, T/C: 108%
Second compound 0.316 µM, first compound 0.03 µM
  viability, T/C: 101%
Second compound 0.316 µM, first compound 0.0949 µM
  viability, T/C: 108%
Second compound 0.316 µM, first compound 0.3 µM
  viability, T/C: 86.6%
Second compound 0.316 µM, first compound 0.949 µM
  viability, T/C: 2.83%
Second compound 0.316 µM, first compound 3 µM
  viability, T/C: 0.94%
Second compound 1 µM, first compound 0.00949 µM
  viability, T/C: 99.5%
Second compound 1 µM, first compound 0.03 µM
  viability, T/C: 113%
Second compound 1 µM, first compound 0.0949 µM
  viability, T/C: 99.9%
Second compound 1 µM, first compound 0.3 µM
  viability, T/C: 83.4%
Second compound 1 µM, first compound 0.949 µM
  viability, T/C: 3.91%
Second compound 1 µM, first compound 3 µM
  viability, T/C: 0.93%
